Assay [1] addresses G protein-coupled receptor kinase 4 (Homo sapiens) (UniProt P32298). Conditions: at 10 µM.
A further assay deals with Focal adhesion kinase 1 (Homo sapiens, UniProt Q05397). Put plainly: Selectivity interaction (KinomeScan (DiscoverX)) EUB0000666a PTK2. Conditions: at 10 µM.
Assay [2] concerns the target T1, Tyrosine-protein kinase JAK3 (Homo sapiens) (UniProt P52333).
T1 sequence (whole entry): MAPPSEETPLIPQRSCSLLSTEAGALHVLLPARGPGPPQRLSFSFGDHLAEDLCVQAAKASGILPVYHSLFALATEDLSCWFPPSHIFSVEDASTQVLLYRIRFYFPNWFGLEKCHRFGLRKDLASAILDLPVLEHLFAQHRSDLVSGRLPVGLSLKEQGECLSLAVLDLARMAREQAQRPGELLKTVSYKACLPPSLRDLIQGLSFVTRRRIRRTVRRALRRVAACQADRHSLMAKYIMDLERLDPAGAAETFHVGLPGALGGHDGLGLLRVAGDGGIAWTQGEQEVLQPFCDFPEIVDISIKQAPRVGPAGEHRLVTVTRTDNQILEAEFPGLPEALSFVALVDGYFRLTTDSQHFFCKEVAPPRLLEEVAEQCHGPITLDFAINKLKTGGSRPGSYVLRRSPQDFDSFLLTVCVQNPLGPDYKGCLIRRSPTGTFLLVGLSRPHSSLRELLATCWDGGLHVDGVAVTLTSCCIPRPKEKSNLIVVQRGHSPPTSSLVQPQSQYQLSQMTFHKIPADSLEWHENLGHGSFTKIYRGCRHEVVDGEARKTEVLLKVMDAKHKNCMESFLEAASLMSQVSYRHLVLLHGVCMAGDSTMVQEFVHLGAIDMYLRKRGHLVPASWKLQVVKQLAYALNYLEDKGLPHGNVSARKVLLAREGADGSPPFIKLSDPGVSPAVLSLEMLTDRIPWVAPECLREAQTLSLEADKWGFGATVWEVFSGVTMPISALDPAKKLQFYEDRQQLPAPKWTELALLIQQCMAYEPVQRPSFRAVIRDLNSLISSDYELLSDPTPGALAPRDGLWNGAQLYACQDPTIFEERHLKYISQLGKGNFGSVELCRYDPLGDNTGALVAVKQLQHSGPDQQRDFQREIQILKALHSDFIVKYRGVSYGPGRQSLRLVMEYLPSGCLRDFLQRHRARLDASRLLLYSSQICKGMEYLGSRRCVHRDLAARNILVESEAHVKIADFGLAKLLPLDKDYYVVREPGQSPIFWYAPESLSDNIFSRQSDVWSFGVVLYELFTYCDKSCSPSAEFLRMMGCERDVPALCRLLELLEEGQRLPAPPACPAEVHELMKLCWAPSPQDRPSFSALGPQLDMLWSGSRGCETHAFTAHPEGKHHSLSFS
Put plainly: Selectivity interaction (Kinase panel (literature)) EUB0001199aCl JAK3. Conditions: at 1 µM.

For assay [3], the target named is T2, Interleukin-1 receptor-associated kinase 4 (Homo sapiens) (UniProt Q9NWZ3).
T2 sequence (whole entry): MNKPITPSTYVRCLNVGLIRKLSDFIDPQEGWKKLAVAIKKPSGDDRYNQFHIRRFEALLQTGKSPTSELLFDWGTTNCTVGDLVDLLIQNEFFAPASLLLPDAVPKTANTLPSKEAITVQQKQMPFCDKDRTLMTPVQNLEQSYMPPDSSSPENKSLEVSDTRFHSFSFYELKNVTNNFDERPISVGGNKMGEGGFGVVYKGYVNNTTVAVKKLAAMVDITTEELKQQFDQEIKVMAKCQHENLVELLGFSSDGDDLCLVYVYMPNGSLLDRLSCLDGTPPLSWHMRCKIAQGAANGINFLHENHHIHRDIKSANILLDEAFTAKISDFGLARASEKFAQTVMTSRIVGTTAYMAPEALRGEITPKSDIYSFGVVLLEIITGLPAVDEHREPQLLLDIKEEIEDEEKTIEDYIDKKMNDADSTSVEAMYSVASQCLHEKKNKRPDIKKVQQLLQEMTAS
Put plainly: Selectivity interaction (KinomeScan (DiscoverX)) EUB0001049a IRAK4. The following applies: at 1 µM.

Assay [4] deals with T3, Mitogen-activated protein kinase kinase kinase 6 (Homo sapiens) (UniProt O95382).
T3 sequence (whole entry): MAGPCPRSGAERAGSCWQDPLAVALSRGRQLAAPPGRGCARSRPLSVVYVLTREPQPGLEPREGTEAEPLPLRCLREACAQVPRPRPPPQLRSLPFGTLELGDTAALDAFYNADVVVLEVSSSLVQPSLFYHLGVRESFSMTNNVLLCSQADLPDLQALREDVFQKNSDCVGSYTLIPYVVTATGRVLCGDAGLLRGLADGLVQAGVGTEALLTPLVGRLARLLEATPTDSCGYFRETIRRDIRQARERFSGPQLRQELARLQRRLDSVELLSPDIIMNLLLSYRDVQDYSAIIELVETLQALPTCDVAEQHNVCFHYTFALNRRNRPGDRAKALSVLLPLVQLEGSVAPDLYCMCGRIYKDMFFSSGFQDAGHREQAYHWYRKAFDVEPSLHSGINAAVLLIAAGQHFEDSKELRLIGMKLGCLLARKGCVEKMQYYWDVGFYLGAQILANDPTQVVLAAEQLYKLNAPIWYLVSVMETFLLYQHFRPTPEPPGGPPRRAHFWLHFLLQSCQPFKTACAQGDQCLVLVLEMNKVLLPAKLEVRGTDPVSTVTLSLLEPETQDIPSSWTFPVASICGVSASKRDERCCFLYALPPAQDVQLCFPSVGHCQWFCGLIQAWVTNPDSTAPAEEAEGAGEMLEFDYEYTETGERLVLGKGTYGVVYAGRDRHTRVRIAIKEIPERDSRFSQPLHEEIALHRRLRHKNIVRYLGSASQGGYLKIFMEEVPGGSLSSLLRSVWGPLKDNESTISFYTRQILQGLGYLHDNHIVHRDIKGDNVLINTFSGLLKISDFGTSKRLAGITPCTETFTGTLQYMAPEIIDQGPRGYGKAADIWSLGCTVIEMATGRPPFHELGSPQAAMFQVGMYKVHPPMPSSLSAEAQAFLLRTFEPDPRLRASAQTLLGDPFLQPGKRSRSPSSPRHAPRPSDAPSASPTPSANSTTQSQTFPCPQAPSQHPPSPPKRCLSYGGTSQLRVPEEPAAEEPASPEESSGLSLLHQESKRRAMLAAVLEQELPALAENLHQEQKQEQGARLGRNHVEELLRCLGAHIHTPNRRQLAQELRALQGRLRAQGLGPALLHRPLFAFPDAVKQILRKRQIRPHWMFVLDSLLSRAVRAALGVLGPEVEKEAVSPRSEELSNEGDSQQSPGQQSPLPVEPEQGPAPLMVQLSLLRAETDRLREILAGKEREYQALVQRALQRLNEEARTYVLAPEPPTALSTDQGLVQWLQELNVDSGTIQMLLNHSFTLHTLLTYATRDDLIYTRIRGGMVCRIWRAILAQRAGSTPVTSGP
Kind of assay: Selectivity interaction (KinomeScan (DiscoverX)) EUB0000595a MAP3K6. Conditions: at 10 µM.

Focal adhesion kinase 1, sequence (Q05397 2-1052 limits assumed): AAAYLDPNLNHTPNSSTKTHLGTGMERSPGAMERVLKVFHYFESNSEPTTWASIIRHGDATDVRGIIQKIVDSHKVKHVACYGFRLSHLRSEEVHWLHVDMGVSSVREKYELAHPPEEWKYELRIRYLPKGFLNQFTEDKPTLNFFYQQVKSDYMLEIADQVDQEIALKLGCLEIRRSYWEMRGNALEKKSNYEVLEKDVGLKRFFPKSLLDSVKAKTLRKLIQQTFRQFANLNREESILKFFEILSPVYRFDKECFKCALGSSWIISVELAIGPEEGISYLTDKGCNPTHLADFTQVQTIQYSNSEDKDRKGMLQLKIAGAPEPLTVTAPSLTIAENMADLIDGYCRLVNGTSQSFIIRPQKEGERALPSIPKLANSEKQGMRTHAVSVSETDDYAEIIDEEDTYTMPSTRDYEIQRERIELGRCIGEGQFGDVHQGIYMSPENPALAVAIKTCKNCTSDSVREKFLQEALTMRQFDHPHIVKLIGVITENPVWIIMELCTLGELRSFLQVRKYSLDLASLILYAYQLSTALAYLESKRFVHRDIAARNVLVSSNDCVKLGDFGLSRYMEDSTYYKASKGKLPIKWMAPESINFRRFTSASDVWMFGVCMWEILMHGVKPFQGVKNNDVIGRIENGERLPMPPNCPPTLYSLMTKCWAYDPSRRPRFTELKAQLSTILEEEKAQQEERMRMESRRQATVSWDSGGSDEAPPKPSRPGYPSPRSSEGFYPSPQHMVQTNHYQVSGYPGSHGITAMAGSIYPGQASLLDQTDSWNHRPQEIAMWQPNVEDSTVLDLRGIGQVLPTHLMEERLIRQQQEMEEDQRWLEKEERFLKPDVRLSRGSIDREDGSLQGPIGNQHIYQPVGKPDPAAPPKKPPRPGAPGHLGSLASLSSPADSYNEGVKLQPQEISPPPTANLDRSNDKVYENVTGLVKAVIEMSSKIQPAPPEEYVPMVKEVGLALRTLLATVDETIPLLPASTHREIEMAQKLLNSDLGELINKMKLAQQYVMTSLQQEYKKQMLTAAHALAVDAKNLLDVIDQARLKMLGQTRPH
G protein-coupled receptor kinase 4 (Homo sapiens), sequence (P32298 whole entry, looked up): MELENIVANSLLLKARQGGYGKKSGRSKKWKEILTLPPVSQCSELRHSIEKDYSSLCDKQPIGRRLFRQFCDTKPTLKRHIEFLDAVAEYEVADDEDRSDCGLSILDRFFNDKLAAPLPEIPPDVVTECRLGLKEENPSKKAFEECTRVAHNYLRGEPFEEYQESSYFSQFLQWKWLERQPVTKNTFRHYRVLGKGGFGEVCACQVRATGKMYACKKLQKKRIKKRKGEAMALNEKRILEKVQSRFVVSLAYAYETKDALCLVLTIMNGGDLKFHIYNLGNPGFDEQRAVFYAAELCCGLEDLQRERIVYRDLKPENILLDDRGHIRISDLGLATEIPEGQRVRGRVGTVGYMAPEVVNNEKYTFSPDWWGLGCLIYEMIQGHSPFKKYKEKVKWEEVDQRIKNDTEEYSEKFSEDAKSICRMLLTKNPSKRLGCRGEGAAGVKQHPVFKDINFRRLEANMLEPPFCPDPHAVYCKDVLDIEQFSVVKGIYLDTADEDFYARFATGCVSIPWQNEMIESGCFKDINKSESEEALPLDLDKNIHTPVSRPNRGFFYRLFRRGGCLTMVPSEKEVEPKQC

For `Cc1cc([C@@H](C)Nc2ccccc2C(=O)O)c2nc(N3CCOCC3)cc(=O)n2c1` [AZD-6482], the % of control in assay [1] is 90%.

For the compound `O=C(NOC[C@H](O)CO)c1ccc(F)c(F)c1Nc1ccc(I)cc1F`, the % of control at Focal adhesion kinase 1 worked out at 85%.

With `CN1Cc2nccc(-c3cn(C)nc3-c3ccc(F)cc3)c2C1=O`, the % of inhibition in assay [2] is -2%.

The compound `COc1cc(Nc2nc(C)cc(-c3cnn4nc(OC)ccc34)n2)cc(C(F)(F)F)c1` had a % of control in assay [3] of 87%.

For the compound `COCC(=O)NC/C=C/c1ccc2ncnc(Nc3ccc(Oc4ccc(C)nc4)c(C)c3)c2c1` [CP-724714], in assay [4], the % of control turned out to be 100%.

The record behind these values is ChEMBL document CHEMBL5465560, “Selectivity Literature for EUbOPEN Chemogenomic Library” (2024).
